Values after ≈ are worked out from the molar mass of the structure shown.
Experiments:
Format in all cases: cell-based
[1] = system: AT1 cells; experiment: Nanocomposite cellular uptake mechanism study (endocytosis inhibitors, temperature block); conditions: 5 μM, 2 hours pretreatment, vs untreated cells
Procedure: To determine the NC/NP uptake mechanism used by cells, an endocytosis-inhibition examination was performed. Alveolar Type 1 cells were seeded at confluency in 48-well plates and attached overnight at 37° C. in an incubator with 5% CO2. Rhodamine B-loaded nanocomposites were prepared using a similar procedure done for other studies. After 24 hours of seeding, the AT1 cell culture medium was replaced by fresh 1% serum media containing 5 μM of Amiloride, 5 μM of methyl-β-cyclodextran, 5 μg/mL of Filipin III, 5 μM of Cytochalasin-D, 5 μM of Imipramine, 80 μM Dynasore, or 5 mM of Deoxy-glucose (Sigma Aldrich & Cayman Chemical). After 2 hours, fresh complete media with Rho B-labeled nanocomposites at a concentration of 0.5 mg/mL was added. […] Images were acquired using a fluorescent microscope and processed for NP uptake in random areas using 10 images from each inhibitor group with the ImageJ software.
In a similar fashion, to check if the nanocomposites undergo an energy-dependent uptake, temperature block was studied in AT1 cells by preincubating cells at 4° C. for 30 minutes, followed by treatment with fluorescent nanocomposites for 90 minutes at 4° C. Later, fluorescent images were acquired, and the cell lysates were analyzed for quantitative nanocomposite uptake.

[2] = system: MRSA; experiment: microbe, parasite or virus in culture; conditions: Staphylococcus aureus, 24 h
[3] = system: primary alveolar type I epithelial cells (AT1); experiment: Cytocompatibility (MTS) in AT1 cells; conditions: 72 hours, 0.0625-1 mg/mL, vs untreated control
Procedure: Primary lung epithelial cells, RAW macrophages, and HUVECs were used to assess toxicity of the nanocomposites. Nanocomposites were prepared as described in for AT1 cells, in which 20,000 cells/well of primary alveolar type I epithelial cells (AT1) were seeded in 48-well plates. After the overnight culture, various groups of particles including blank PLGA NPs, nanofibers only, and nanocomposites (nanofiber coated-PLGA nanoparticles) were given to the cells in triplicate at various concentrations ranging from 0.0625-1 mg/mL. The nanofiber concentration chosen was equivalent to the peptide amount conjugated onto the nanoparticles. After 72 hours, the cells were washed 3 times with PBS, and MTS reagent was applied to the cells to assess the cell viability following the company's instructions.
In this study, primary lung epithelial cells and kidney epithelial cells (Vero E6) were used to assess toxicity from NPs. NF-coated NPs were prepared as described above, in which 4000 cells/well of primary alveolar type I epithelial cells (AT1 cells) and Vero E6 cells were seeded in 96-well plates. After overnight culturing, RDV NCs were added to the cells in triplicate at various concentrations ranging from 0 to 1 mg/mL. An NF to NP ratio of 0.25 was used for the study. […]

Molecule: C=C1[C@@H](C)[C@H]2[C@H](Cc3ccccc3)NC(=O)[C@]23[C@H](OC(C)=O)/C=C/[C@@](C)(O)C(=O)[C@@H](C)C/C=C/[C@H]3[C@@H]1O [cytochalasin-D]
- effect of endocytosis inhibitor on cellular uptake of NCs [1]: significant reduction in cellular uptake

Molecule: CN[C@H](CC(C)C)C(=O)N[C@H]1C(=O)N[C@@H](CC(N)=O)C(=O)N[C@H]2C(=O)N[C@H]3C(=O)N[C@H](C(=O)N[C@H](C(=O)O)c4cc(O)cc(O)c4-c4cc3ccc4O)[C@H](O)c3ccc(c(Cl)c3)Oc3cc2cc(c3O[C@@H]2O[C@H](CO)[C@@H](O)[C@H](O)[C@H]2O[C@H]2C[C@](C)(N)[C@H](O)[C@H](C)O2)Oc2ccc(cc2Cl)[C@H]1O [free vancomycin, vancomycin]
- MIC [2]: 2 µg/mL (≈ 1.38 µM)

Molecule: Ac-KKKKKKKKKKQWQWQWQWQWQWEEE-NH2 [NFs, K10(QW)6E3]
- cytocompatibility (cell viability, MTS) [3]: significant toxicity with concentrations ranging from 0.25-1 mg/mL

— patent US20260102503A1, “NANOCOMPOSITES FOR ENHANCED CELLULAR PAYLOAD DELIVERY” (priority 2022, published 2026)
